From the NIST ThermoML archive (doi:10.1016/j.jct.2016.07.008)

Test: xn = mol fraction of the nth substance listed
Conditions: Liquid, Vibrating wire viscometry

Cc1ccc(C)c(C)c1 [1,2,4-trimethylbenzene] + CCCCO
viscosity [mPa·s]
Conditions | x2 = 0.2999 | x2 = 0.5289 | x2 = 0.7991
333.15 K, 100 kPa | 0.5848 | 0.6443 | 0.8537
333.15 K, 1000 kPa | 0.5927 | 0.6496 | 0.8605
333.15 K, 5000 kPa | 0.6096 | 0.6816 | 0.8976
333.15 K, 10000 kPa | 0.6356 | 0.7029 | 0.94
333.15 K, 20000 kPa | 0.6805 | 0.753 | 1.026
333.15 K, 30000 kPa | 0.7326 | 0.8089 | 1.107
333.15 K, 40000 kPa | 0.7951 | 0.8688 | 1.197
333.15 K, 50000 kPa | 0.8476 | 0.9271 | 1.282
333.15 K, 60000 kPa | 0.906 | 0.9904 | 1.379
333.15 K, 70000 kPa | 0.9707 | 1.059 | 1.466
333.15 K, 80000 kPa | 1.03 | 1.131 | 1.577
333.15 K, 100000 kPa | 1.177 | 1.295 | 1.771
333.15 K, 120000 kPa | 1.308 | 1.453 | 1.945
333.15 K, 140000 kPa | 1.447 | 1.615 | 2.135
353.15 K, 100 kPa | 0.4547 | 0.495 | 0.6105
353.15 K, 1000 kPa | 0.4576 | 0.4993 | 0.618
353.15 K, 5000 kPa | 0.4793 | 0.5174 | 0.6396
353.15 K, 10000 kPa | 0.4978 | 0.5381 | 0.667
353.15 K, 20000 kPa | 0.5414 | 0.5739 | 0.7229
353.15 K, 30000 kPa | 0.577 | 0.6155 | 0.7805
353.15 K, 40000 kPa | 0.6166 | 0.6521 | 0.8397
353.15 K, 50000 kPa | 0.659 | 0.6945 | 0.9004
353.15 K, 60000 kPa | 0.7031 | 0.7392 | 0.9627
353.15 K, 70000 kPa | 0.7463 | 0.7855 | 1.026
353.15 K, 80000 kPa | 0.7895 | 0.8338 | 1.092
353.15 K, 100000 kPa | 0.8968 | 0.9482 | 1.226
353.15 K, 120000 kPa | 0.997 | 1.062 | 1.367
353.15 K, 140000 kPa | 1.117 | 1.194 | 1.512
